Measurements as given in PMC10143232, “Dihydropyrimidone Derivatives as Thymidine Phosphorylase Inhibitors: Inhibition Kinetics, Cytotoxicity, and Molecular Docking” (Molecules, 2023).
Where a name gives a salt, the structure may show the parent alone. Read-outs that look alike come from different tables or passages of the source.

Columns and labels:
[1] = target: T1, Thymidine phosphorylase (TP) (Escherichia coli, UniProt P07650); test: Thymidine phosphorylase inhibition assay (spectrophotometric, 290 nm); type: biochemical, E. coli; details: for IC50 / TP inhibitory activity (in words) / Thymidine Phosphorylase Inhibitory Activity % Inhibition: E. coli TP; for IC50: n = 3, NA: not active, read-out: Thymidine Phosphorylase Inhibitory Activity IC50 ± SEM; for inhibition at 500 µM / Thymidine Phosphorylase Inhibitory Activity % Inhibition: test compound 10 µL of 0.5 mM in 200 µL, thymidine substrate, 30 °C, pH 7.0; for TP inhibitory activity (in words): inactive = less than 50% inhibition
T1 construct: purchased Sigma Aldrich, USA
T1 sequence (P07650 whole entry): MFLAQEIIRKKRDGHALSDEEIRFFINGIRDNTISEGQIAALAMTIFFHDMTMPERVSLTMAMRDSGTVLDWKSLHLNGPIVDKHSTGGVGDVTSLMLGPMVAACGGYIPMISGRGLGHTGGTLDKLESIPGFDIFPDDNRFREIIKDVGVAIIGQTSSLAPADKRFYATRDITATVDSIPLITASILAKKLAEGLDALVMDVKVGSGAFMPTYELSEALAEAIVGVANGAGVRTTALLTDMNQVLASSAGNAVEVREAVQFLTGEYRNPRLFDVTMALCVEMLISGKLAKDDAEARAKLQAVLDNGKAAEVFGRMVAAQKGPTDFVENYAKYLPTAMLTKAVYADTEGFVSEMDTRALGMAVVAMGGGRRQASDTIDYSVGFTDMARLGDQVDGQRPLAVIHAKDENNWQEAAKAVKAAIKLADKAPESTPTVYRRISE
Method: Thymidine phosphorylase (source: E. coli, EC Number 2.4.2.4), thymidine (substrate), and potassium phosphate monobasic (as buffer) were acquired from Sigma Aldrich, USA. […] Dimethylsulfoxide (DMSO), used as a solvent, was obtained from Fisher Scientific, Schwerte, Germany.
Reaction was performed in 96-well plates and in triplicates. The 200 µL reaction mixture was comprised of 10 µL of the test compound (0.5 mM; dissolved in DMSO), 150 µL of potassium phosphate buffer (pH 7.0, 50 mM), and 20 µL of TP enzyme (0.058 unit/well). The 96-well plate containing all these reagents was then incubated at 30 °C for 10 min.
SoftMax Pro 4.8 software (Molecular Devices, San Jose, CA, USA) was used to analyse the results.
EZ-FIT, enzyme kinetics software (Perrella Scientific, Inc., Amherst, GA, USA) was used to calculate the IC50 values. In order to analyse the kinetic parameter, Grafit version 7.0 (Erithacus Software Ltd., Horley, UK) was used.

MTT cytotoxicity assay = type: cell-based; details: 3T3 mouse fibroblast cells, 48 h, test compounds 1 to 30 µM, NC: non-cytotoxic; for viability at 48 h: read-out: Cytotoxicity Studies Cell Viability (%)
Method: Cytotoxicity of active compounds were evaluated employing a standard MTT calorimetric assay. Mouse fibroblast (3T3 cell line) acquired from American Type Culture Collection (ATCC), Virginia, USA, was cultured in DMEM (Dulbecco’s modified eagle medium). In total, 5% FBS (fetal bovine serum), penicillin (100 IU/mL), and streptomycin ([…]) were then added to the medium in […] flasks, and kept in a CO2 incubator at 37 °C. The harvested cell was then diluted with a specific medium. Haemocytometer was used for the quantification of cells. After that, the culture of cell having concentration of 5x104 (cells/mL) was prepared, inoculated into 96-well plates (100 µL/well), and then incubated overnight. After incubation, the old medium was removed, and fresh medium (200 µL) was added. Then different concentrations of test compounds (ranging from 1 to 30 µM) were added. After incubation of 48 h, each well received 200 µL of MTT dye (0.5 mg/mL), and further incubated for a duration of 4 h. After 4 h, 100 µL of DMSO was introduced into each well of the 96-well plate. The reduction of MTT to formazan was measured by recording absorbance at 540 nm with the help of a microplate reader (SpectraMax 384, Molecular Devices, San Jose, CA, USA).

[2] = pH 7, E. coli TP, read-out: Thymidine Phosphorylase Inhibitory Activity % Inhibition

In the case of `COC(=O)C1=C(C)NC(=O)NC1c1ccsc1` (centres unmarked) [Compound 24, Methyl 6-methyl-2-oxo-4-(thiophen-3-yl)-1,2,3,4-tetrahydropyrimidine-5-carboxylate], the IC50 [1] is reported as 350.6 ± 0.6 µM, the inhibition at 500 µM [1, 2] is reported as 79.6% and the viability at 48 h (MTT cytotoxicity assay) is reported as 82%.
In the case of `COC(=O)C1=C(C)NC(=O)NC1c1ccccc1F` (centres unmarked) [Compound 35, Methyl 4-(2-fluorophenyl)-6-methyl-2-oxo-1,2,3,4-tetrahydropyrimidine-5-carboxylate], the “TP inhibitory activity (in words)” value [1] is reported as “activity was lost” and the inhibition at 500 µM [1, 2] is reported as 9.6%.
In the case of `N=C1CCCN1Cc1[nH]c(=O)[nH]c(=O)c1Cl` [Tipiracil-HCl, reference compound], the inhibition at 500 µM ([1]; pH 7, read-out: Thymidine Phosphorylase Inhibitory Activity % Inhibition, E. coli TP) is reported as 92%.
With `COC(=O)C1=C(C)NC(=O)NC1CC(C)C` (centres unmarked) [Compound 21, Methyl 4-isobutyl-6-methyl-2-oxo-1,2,3,4-tetrahydropyrimidine-5-carboxylate] the IC50 [1] was 345.4 ± 0.5 µM, the inhibition at 500 µM [1, 2] was 90.7% and the viability at 48 h (MTT cytotoxicity assay) was 55%.
For `COC(=O)C1=C(C)NC(=O)NC1c1ccc(OC)c(OC)c1` (centres unmarked) [Compound 25, Methyl 4-(3,4-dimethoxyphenyl)-6-methyl-2-oxo-1,2,3,4-tetrahydropyrimidine-5-carboxylate], the IC50 [1] was 424.1 ± 0.9 µM, the inhibition at 500 µM [1, 2] was 59% and the viability at 48 h (MTT cytotoxicity assay) was 99%.
For `COC(=O)C1=C(C)NC(=O)NC1c1ccco1` (centres unmarked) [Compound 9, Methyl 4-(furan-2-yl)-6-methyl-2-oxo-1,2,3,4-tetrahydropyrimidine-5-carboxylate], the IC50 [1] was 373.6 ± 2.2 µM, the inhibition at 500 µM [1, 2] was 78.9% and the viability at 48 h (MTT cytotoxicity assay) was 72%.
For `COC(=O)C1=C(C)NC(=O)NC1c1ccc2ccccc2c1` (centres unmarked) [Compound 3, Methyl 6-methyl-4-(naphthalen-2-yl)-2-oxo-1,2,3,4-tetrahydropyrimidine-5-carboxylate], the “Thymidine Phosphorylase Inhibitory Activity % Inhibition” value [1] was 38.1%.
For `COC(=O)C1=C(C)NC(=O)NC1c1ccc(Cl)cc1Cl` (centres unmarked) [Compound 39, Methyl 4-(2,4-dichlorophenyl)-6-methyl-2-oxo-1,2,3,4-tetrahydropyrimidine-5-carboxylate], the “TP inhibitory activity (in words)” value [1] was “inactive” and the inhibition at 500 µM [1, 2] was -1.8%.
`COC(=O)C1=C(C)NC(=O)NC1c1ccc(OC(C)=O)c(OC)c1` (centres unmarked) [Compound 29, Methyl 4-(4-acetoxy-3-methoxyphenyl)-6-methyl-2-oxo-1,2,3,4-tetrahydropyrimidine-5-carboxylate] showed an IC50 [1] of 400.5 ± 0.6 µM, an inhibition at 500 µM [1, 2] of 76% and a viability at 48 h (MTT cytotoxicity assay) of 80%.
Compound `COC(=O)C1=C(C)NC(=O)NC1c1ccc(N(C)C)cc1` (centres unmarked) [Compound 26, Methyl 4-(4-(dimethylamino)phenyl)-6-methyl-2-oxo-1,2,3,4-tetrahydropyrimidine-5-carboxylate] has an IC50 [1] of 350 ± 3.7 µM, an inhibition at 500 µM [1, 2] of 92.3% and a viability at 48 h (MTT cytotoxicity assay) of 57%.
For `COC(=O)C1=C(C)NC(=O)NC1c1ccc(C(C)C)cc1` (centres unmarked) [Compound 19, Methyl 4-(4-isopropylphenyl)-6-methyl-2-oxo-1,2,3,4-tetrahydropyrimidine-5-carboxylate], the inhibition at 500 µM [1, 2] was -18.5%.
For `COC(=O)C1=C(C)NC(=O)NC1c1ccccc1Cl` (centres unmarked) [Compound 6, Methyl 4-(2-chlorophenyl)-6-methyl-2-oxo-1,2,3,4-tetrahydropyrimidine-5-carboxylate], the “TP inhibitory activity (in words)” value [1] was “inactive” and the inhibition at 500 µM [1, 2] was -65.3%.
For `COC(=O)C1=C(C)NC(=O)NC1c1ccc(O)c(Cl)c1` (centres unmarked) [Compound 28, Methyl 4-(3-chloro-4-hydroxyphenyl)-6-methyl-2-oxo-1,2,3,4-tetrahydropyrimidine-5-carboxylate], the IC50 [1] was 404.6 ± 1 µM, the inhibition at 500 µM [1, 2] was 67.5% and the viability at 48 h (MTT cytotoxicity assay) was 95%.
In the case of `COC(=O)C1=C(C)NC(=O)NC1c1cccs1` (centres unmarked) [Compound 27, Methyl 6-methyl-2-oxo-4-(thiophen-2-yl)-1,2,3,4-tetrahydropyrimidine-5-carboxylate], the inhibition at 500 µM [1, 2] is reported as 47.1%.
With `CCOc1ccc(C2NC(=O)NC(C)=C2C(=O)OC)cc1` (centres unmarked) [Compound 2, Methyl 4-(4-ethoxyphenyl)-6-methyl-2-oxo-1,2,3,4-tetrahydropyrimidine-5-carboxylate] the IC50 [1] was 389 ± 6.2 µM, the inhibition at 500 µM [1, 2] was 78.2% and the viability at 48 h (MTT cytotoxicity assay) was 67%.
For `COC(=O)C1=C(C)NC(=O)NC1c1ccc2ccccc2c1` (centres unmarked) [Compound 8, Methyl 6-methyl-4-(naphthalen-2-yl)-2-oxo-1,2,3,4-tetrahydropyrimidine-5-carboxylate], the “Thymidine Phosphorylase Inhibitory Activity % Inhibition” value [1] was −10.3%.
For `COC(=O)C1=C(C)NC(=O)NC1c1cc(OC)c(O)c(OC)c1` (centres unmarked) [Compound 30, Methyl 4-(4-hydroxy-3,5-dimethoxyphenyl)-6-methyl-2-oxo-1,2,3,4-tetrahydropyrimidine-5-carboxylate], the IC50 [1] was 396.7 ± 1.5 µM, the inhibition at 500 µM [1, 2] was 69.6% and the viability at 48 h (MTT cytotoxicity assay) was 75%.
Work on `COC(=O)C1=C(C)NC(=O)NC1c1ccc(OC)cc1F` (centres unmarked) [Compound 14, Methyl 4-(2-fluoro-4-methoxyphenyl)-6-methyl-2-oxo-1,2,3,4-tetrahydropyrimidine-5-carboxylate] yielded an IC50 [1] of 397.1 ± 0.1 µM, an inhibition at 500 µM [1, 2] of 68.4% and a viability at 48 h (MTT cytotoxicity assay) of 71%.
In the case of `COC(=O)C1=C(C)NC(=O)NC1c1cc(OC)ccc1OC` (centres unmarked) [Compound 17, Methyl 4-(2,5-dimethoxyphenyl)-6-methyl-2-oxo-1,2,3,4-tetrahydropyrimidine-5-carboxylate], the inhibition at 500 µM [1, 2] is reported as 46.5%.
With `C[C@@H]1C[C@@H]([C@H](O)CC2CC(=O)NC(=O)C2)C(=O)[C@@H](C)C1` [Cycloheximide, reference compound] the viability at 48 h (MTT cytotoxicity assay) was 30% and the IC50 at 48 h (MTT cytotoxicity assay; read-out: Cytotoxicity Studies IC50 ± SD) was 0.8 ± 0.2 µM.
Compound `COC(=O)C1=C(C)NC(=O)NC1c1ccc(F)c(OC)c1` (centres unmarked) [Compound 16, Methyl 4-(4-fluoro-3-methoxyphenyl)-6-methyl-2-oxo-1,2,3,4-tetrahydropyrimidine-5-carboxylate] has an inhibition at 500 µM [1, 2] of 47.8%.
Work on `COC(=O)C1=C(C)NC(=O)NC1c1ccccc1OCc1ccccc1` (centres unmarked) [Compound 36, Methyl 4-(2-(benzyloxy)phenyl)-6-methyl-2-oxo-1,2,3,4-tetrahydropyrimidine-5-carboxylate] yielded an inhibition at 500 µM [1, 2] of 5.3%.
In the case of `COC(=O)C1=C(C)NC(=O)NC1c1ccccc1OC` (centres unmarked) [Compound 7, Methyl 4-(2-methoxyphenyl)-6-methyl-2-oxo-1,2,3,4-tetrahydropyrimidine-5-carboxylate], the inhibition at 500 µM [1, 2] is reported as -19.3%.
Work on `COC(=O)C1=C(C)NC(=O)NC1c1cccc(OCc2ccccc2)c1` (centres unmarked) [Compound 31, Methyl 4-(3-(benzyloxy)phenyl)-6-methyl-2-oxo-1,2,3,4-tetrahydropyrimidine-5-carboxylate] yielded an inhibition at 500 µM [1, 2] of -41.9%.
`COC(=O)C1=C(C)NC(=O)NC1c1ccc(OC)c(OCc2ccccc2)c1` (centres unmarked) [Compound 23, Methyl 4-(3-(benzyloxy)-4-methoxyphenyl)-6-methyl-2-oxo-1,2,3,4-tetrahydropyrimidine-5-carboxylate] gave an inhibition at 500 µM [1, 2] of 7.5%.
`CCC1NC(=O)NC(C)=C1C(=O)OC` (centres unmarked) [Compound 4, Methyl 4-ethyl-6-methyl-2-oxo-1,2,3,4-tetrahydropyrimidine-5-carboxylate] gave an inhibition at 500 µM [1, 2] of 46.8%.
Compound `COC(=O)C1=C(C)NC(=O)NC1c1cccc(O)c1` (centres unmarked) [Compound 15, Methyl 4-(3-hydroxyphenyl)-6-methyl-2-oxo-1,2,3,4-tetrahydropyrimidine-5-carboxylate] has an inhibition at 500 µM [1, 2] of 38.9%.
For `COC(=O)C1=C(C)NC(=O)NC1c1c(Cl)cccc1Cl` (centres unmarked) [Compound 18, Methyl 4-(2,6-dichlorophenyl)-6-methyl-2-oxo-1,2,3,4-tetrahydropyrimidine-5-carboxylate], the “TP inhibitory activity (in words)” value [1] was “inactive” and the inhibition at 500 µM [1, 2] was -15.4%.
